# Source: patent US20120270237A9, “METHODS FOR THE IDENTIFICATION OF KINASE INTERACTING MOLECULES AND FOR THE PURIFICATION OF KINASE PROTEINS” (Cellzone AG, priority 2009, published 2012)
# How the values were obtained:
# Test in all cases: Kinobeads competition binding, L-363 cell lysate
# Conditions in all cases: 10 μM free compound, L-363 lysate
# [1] = biological target: PAK4 (Homo sapiens, UniProt O96013); parameters: endogenous in cells; host or cells: L-363 (MG132-treated)
# Protocol: (§1) To one aliquot of cell lysate 10 μM of the free compound (FIG. 3, CZC31326) was added and allowed to bind to proteins in the lysate. Then the affinity matrix with the immobilized compound was added to capture proteins that were not interacting with the previously added free compound. Beads were separated from the lysate and bead bound proteins were eluted in SDS sample buffer and subsequently separated by SDS-Polyacrylamide gel electrophoresis (FIG. 8). Suitable gel bands were cut out and subjected to in-gel proteolytic digestion with trypsin. The second lysate aliquot was processed identically, however no free compound was added (DMSO solvent control). Peptides originating from samples 1 and 2 were labeled with iTRAQ reagents (iTRAQ 114 and iTRAQ 117) and the combined samples were analyzed with a nano-flow liquid chromatography system coupled online to a tandem mass spectrometer (LC-MS/MS) experiment followed by iTRAQ reporter ion quantification in the MS/MS spectra as described in Example 2.
# (§2) For this experiment the human plasma cell leukaemia line L-363 was used (German Collection of Microorganisms and Cell Cultures, DSMZ number ACC49, Braunschweig, Germany). Cells were treated for three hours with 20 μM of the proteasome inhibitor MG132 (Z-Leu-Leu-Leu-al, Sigma C2211) prior to cell harvesting.
# [2] = biological target: T1, NEK3 (Homo sapiens, UniProt P51956); parameters: endogenous in cells; host or cells: L-363 (MG132-treated)
# T1 sequence (P51956 1-506): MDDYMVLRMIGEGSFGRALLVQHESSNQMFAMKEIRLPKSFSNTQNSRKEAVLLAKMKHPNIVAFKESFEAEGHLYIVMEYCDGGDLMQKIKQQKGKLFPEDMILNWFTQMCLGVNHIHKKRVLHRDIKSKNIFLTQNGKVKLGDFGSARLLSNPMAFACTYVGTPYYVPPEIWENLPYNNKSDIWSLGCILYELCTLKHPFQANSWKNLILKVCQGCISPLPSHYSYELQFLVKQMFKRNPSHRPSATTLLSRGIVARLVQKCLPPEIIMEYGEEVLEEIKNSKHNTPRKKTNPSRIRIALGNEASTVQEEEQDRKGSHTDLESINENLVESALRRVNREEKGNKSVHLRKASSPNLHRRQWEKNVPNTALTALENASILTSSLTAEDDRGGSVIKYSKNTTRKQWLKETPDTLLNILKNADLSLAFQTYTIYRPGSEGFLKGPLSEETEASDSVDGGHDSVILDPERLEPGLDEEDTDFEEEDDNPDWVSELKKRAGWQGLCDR
# Protocol: as §1, §2
# [3] = biological target: T2, NEK9 (Homo sapiens, UniProt Q8TD19); parameters: endogenous in cells; host or cells: L-363 (MG132-treated)
# T2 sequence (Q8TD19 1-979): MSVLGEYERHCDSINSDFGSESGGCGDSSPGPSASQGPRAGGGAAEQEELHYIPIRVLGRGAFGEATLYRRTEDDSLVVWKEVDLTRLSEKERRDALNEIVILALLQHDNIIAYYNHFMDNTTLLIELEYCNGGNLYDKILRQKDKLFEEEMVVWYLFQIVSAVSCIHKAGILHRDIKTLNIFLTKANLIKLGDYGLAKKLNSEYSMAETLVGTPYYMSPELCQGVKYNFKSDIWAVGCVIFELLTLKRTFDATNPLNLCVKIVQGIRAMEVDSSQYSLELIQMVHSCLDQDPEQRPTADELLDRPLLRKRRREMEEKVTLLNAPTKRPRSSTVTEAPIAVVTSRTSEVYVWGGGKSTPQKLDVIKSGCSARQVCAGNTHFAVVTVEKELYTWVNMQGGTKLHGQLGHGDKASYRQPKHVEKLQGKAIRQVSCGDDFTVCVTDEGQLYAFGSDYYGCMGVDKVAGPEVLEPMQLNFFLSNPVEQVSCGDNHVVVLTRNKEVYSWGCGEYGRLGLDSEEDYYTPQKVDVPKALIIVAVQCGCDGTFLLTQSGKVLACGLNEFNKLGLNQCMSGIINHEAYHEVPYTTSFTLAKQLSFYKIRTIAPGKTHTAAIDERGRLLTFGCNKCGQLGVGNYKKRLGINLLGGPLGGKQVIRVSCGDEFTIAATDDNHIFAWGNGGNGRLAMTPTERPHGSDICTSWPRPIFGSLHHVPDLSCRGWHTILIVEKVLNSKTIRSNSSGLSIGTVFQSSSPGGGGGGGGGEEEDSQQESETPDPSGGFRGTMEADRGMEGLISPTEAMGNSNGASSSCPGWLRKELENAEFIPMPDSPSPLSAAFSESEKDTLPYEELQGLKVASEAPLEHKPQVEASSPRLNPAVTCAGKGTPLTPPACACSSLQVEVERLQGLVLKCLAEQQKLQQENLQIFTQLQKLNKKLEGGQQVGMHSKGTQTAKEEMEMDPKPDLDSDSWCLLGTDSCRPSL
# Protocol: as §1, §2
# [4] = biological target: MAP2K6 (Homo sapiens, UniProt P52564); parameters: capturing and identification of kinases from L-363 cell lysate; endogenous in cells; host or cells: L-363 (DSMZ ACC49), treated with MG132 before harvest
# Protocol: as §1, §2
# [5] = biological target: RIPK2 (Homo sapiens, UniProt O43353); parameters: capturing and identification of kinases from L-363 cell lysate; endogenous in cells; host or cells: L-363 (DSMZ ACC49), treated with MG132 before harvest
# Protocol: as §1, §2
# RIPK2, sequence (O43353 whole entry): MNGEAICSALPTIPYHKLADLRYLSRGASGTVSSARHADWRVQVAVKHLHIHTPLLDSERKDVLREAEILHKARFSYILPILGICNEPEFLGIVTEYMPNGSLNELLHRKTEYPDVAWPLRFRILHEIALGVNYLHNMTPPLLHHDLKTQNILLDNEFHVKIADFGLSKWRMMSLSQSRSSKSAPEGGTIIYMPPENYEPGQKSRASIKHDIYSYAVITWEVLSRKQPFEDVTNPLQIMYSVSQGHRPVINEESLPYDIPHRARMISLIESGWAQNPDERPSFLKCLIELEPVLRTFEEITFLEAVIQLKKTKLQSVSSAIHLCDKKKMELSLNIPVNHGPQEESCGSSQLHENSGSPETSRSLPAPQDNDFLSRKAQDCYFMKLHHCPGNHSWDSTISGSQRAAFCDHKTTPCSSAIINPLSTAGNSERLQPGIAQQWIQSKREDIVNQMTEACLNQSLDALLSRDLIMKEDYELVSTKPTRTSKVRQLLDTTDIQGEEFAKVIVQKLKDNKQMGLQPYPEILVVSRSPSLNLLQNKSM
# PAK4, sequence (O96013 whole entry): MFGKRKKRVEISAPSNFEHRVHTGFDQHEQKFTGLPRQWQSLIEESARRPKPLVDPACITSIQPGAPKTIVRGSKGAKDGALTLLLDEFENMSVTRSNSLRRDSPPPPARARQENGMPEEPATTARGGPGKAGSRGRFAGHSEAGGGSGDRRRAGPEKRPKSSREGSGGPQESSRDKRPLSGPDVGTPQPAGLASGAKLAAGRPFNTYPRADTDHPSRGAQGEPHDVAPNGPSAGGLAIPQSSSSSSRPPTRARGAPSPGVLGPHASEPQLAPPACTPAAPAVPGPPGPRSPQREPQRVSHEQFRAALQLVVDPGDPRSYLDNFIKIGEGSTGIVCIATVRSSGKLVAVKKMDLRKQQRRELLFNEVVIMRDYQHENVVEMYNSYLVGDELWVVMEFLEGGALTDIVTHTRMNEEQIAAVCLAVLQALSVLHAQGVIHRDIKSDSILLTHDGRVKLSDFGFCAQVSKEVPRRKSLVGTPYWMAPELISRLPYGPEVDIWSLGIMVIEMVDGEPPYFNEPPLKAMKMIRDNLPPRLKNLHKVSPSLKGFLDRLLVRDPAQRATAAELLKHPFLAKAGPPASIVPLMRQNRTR
# MAP2K6, sequence (P52564 whole entry): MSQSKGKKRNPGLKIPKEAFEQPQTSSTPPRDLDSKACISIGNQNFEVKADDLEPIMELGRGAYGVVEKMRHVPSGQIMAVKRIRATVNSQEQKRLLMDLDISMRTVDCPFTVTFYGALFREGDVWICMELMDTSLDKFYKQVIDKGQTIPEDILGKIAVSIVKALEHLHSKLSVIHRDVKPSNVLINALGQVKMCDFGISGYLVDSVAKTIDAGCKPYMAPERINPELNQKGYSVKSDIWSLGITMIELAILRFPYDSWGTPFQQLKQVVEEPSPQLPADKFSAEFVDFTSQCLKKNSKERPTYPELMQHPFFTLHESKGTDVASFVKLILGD
compound,measurement,setting,value
"CS(=O)(=O)Nc1ccccc1Nc1nc(Nc2cccc(OCCN)c2)ncc1Cl [CZC31326, N-(2-(2-(3-(2-aminoethoxy)phenylamino)-5-chloropyrimidin-4-ylamino)phenyl)methanesulfonamide]",inhibition at 10 µM,[1],97.3%
same,inhibition at 10 µM,[2],96.8%
same,inhibition at 10 µM,[3],92.4%
same,inhibition at 10 µM,[4],94.2%
same,inhibition at 10 µM,[5],95.5%
